Test results from patent US10173991B2, “Sulfone amide linked benzothiazole inhibitors of endothelial lipase” (BRISTOL-MYERS SQUIBB COMPANY, priority 2014, dated 2019).

Molecular target: Endothelial lipase (EL) (Homo sapiens (Human), UniProt Q9Y5X9)
Assay: Endothelial lipase (EL) enzymatic assay with fluorescent substrate A10070 in DMPG vesicles
Format: biochemical
Settings: not given
Summary of the method: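 EL from conditioned medium of HT-1080 cells engineered to overexpress endogenous EL; HL partially purified from conditioned medium of HL-overexpressing COS cells. Enzyme preincubated with compound 30 min at 37° C in 50 mM HEPES pH 8.0, 50 mM NaCl, 1 mM CaCl2; DMPG vesicles carrying FRET substrate (0.11 mole fraction) then added.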

Chain of Endothelial lipase (EL) (Q9Y5X9 21-500): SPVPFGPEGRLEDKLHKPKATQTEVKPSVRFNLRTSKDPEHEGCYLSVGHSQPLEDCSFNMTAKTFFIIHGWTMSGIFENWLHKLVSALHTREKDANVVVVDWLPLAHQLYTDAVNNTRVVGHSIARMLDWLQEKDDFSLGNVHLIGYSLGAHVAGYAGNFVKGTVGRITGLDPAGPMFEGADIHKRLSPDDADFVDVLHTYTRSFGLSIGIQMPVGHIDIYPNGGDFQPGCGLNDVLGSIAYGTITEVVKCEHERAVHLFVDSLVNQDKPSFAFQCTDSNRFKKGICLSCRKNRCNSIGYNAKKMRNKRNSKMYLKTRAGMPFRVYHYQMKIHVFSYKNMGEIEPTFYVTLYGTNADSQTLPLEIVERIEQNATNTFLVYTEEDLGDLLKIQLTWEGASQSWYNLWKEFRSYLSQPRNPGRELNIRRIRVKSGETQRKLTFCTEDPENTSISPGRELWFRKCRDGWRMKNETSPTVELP

IC50 [µM] | Compound
0.001 | COCCS(=O)(=O)C(C(=O)NCC(=O)NC1CC1)c1nc2cc(F)c(-c3ccc(NC(=O)OCc4ccccc4)nc3)cc2s1 (stereo not shown) [Example 551, benzyl N-{5-[2-({[(cyclopropyl-carbamoyl)methyl]carbamoyl}(2-methoxyethane-sulfonyl)methyl)-5-fluoro-1,3-benzothiazol-6-yl]pyridin-2-yl} carbamate]
0.002 | Cc1cc2nc(C(C(=O)NCC(=O)NC3CC3)S(=O)(=O)C(C)C)sc2cc1-c1ccc2[nH]c(=O)ccc2c1 (stereo not shown) [Example 204, N-[(cyclopropyl-carbamoyl)methyl]-2-[5-methyl-6-(2-oxo-1,2-dihydroquinolin-6-yl)-1,3-benzothiazol-2-yl]-2-(propane-2-sulfonyl) acetamide]
0.014 | COCCS(=O)(=O)C(C(=O)NCC(=O)NC1CC1)c1nc2ccc(-c3ccnc(O)c3)cc2s1 (stereo not shown) [Example 600, N-[(cyclopropyl-carbamoyl)methyl]-2-[6-(2-hydroxypyridin-4-yl)-1,3-benzothiazol-2-yl]-2-(2-methoxyethane-sulfonyl)acetamide]
0.001 | O=C(CNC(=O)C(c1nc2cc(F)c(-c3cccc(NC(=O)OCc4ccccc4)c3)cc2s1)S(=O)(=O)CCC(F)(F)F)NC1CC1 (stereo not shown) [Example 553, benzyl N-{3-[2-({[(cyclopropyl-carbamoyl)methyl]carbamoyl}(3,3,3-trifluoropropane-sulfonyl)methyl)-5-fluoro-1,3-benzothiazol-6-yl]phenyl} carbamate]
0.007 | COC(=O)Nc1ccc(-c2ccc3nc(C(C(=O)NCC(=O)NC4CC4)S(=O)(=O)CCC(F)(F)F)sc3c2)c(C)c1 (stereo not shown) [Example 26]
0.002 | CCCCS(=O)(=O)C(C(=O)NCC(=O)NC1CC1)c1nc2cc(F)c(-c3ccc(NC(=O)OCc4ccccc4)cc3)cc2s1 (stereo not shown) [Example 53, benzyl N-(4-{2-[(butane-1-sulfonyl) ({[(cyclopropyl-carbamoyl)methyl]carbamoyl})methyl]-5-fluoro-1,3-benzothiazol-6-yl}phenyl) carbamate]
0.046 | O=C(CNC(=O)C(c1nc2cc(-c3ccc(F)nc3)ccc2s1)S(=O)(=O)Cc1ccc(C(F)(F)F)cc1)NC1CC1 (stereo not shown) [Example 17, N-[(cyclopropyl-carbamoyl)methyl]-2-[5-(6-fluoropyridin-3-yl)-1,3-benzothiazol-2-yl]-2-{[4-(trifluoromethyl)phenyl]methanesulfonyl} acetamide]
0.01 | Cc1ccc(-c2cc3nc(C(C(=O)NCC(=O)NC4CC4)S(=O)(=O)C(C)C)sc3cc2F)cn1 (stereo not shown) [Example 262, N-[(cyclopropyl-carbamoyl)methyl]-2-[6-fluoro-5-(6-methylpyridin-3-yl)-1,3-benzothiazol-2-yl]-2-(propane-2-sulfonyl)acetamide]
0.001 | CCCCCS(=O)(=O)C(C(=O)NCC(=O)NC1CC1)c1nc2cc(F)c(-c3ccc(NC(=O)OCc4ccccc4)cc3)cc2s1 (stereo not shown) [Example 48, benzyl N-{4-[2-({[(cyclopropyl-carbamoyl)methyl]carbamoyl} (pentane-1-sulfonyl)methyl)-5-fluoro-1,3-benzothiazol-6-yl]phenyl}carbamate]
0.053 | CC(C)OCCNC(=O)CNC(=O)C(c1nc2cc(F)cc(-c3ccc(F)nc3)c2s1)S(=O)(=O)c1ccc(F)cc1 (stereo not shown) [Example 465, 2-[5-fluoro-7-(6-fluoropyridin-3-yl)-1,3-benzothiazol-2-yl]-2-(4-fluorobenzene-sulfonyl)-N-({[2-(propan-2-yloxy)ethyl]carbamoyl}methyl)acetamide]
0.01 | Cc1cc2nc(C(C(=O)NCC(=O)NC3CC3)S(=O)(=O)C(C)C)sc2cc1-c1ccc(=O)n(C(C)C)c1 (stereo not shown) [Example 207, N-[(cyclopropyl-carbamoyl)methyl]-2-{5-methyl-6-[6-oxo-1-(propan-2-yl)-1,6-dihydropyridin-3-yl]-1,3-benzothiazol-2-yl}-2-(propane-2-sulfonyl) acetamide]
0.014 | COc1ncc(-c2cc3sc(C(C(=O)NCC(=O)NC4CC4)S(=O)(=O)C(C)C)nc3cc2C)cc1F (stereo not shown) [Example 211, N-[(cyclopropyl-carbamoyl)methyl]-2-[6-(5-fluoro-6-methoxypyridin-3-yl)-5-methyl-1,3-benzothiazol-2-yl]-2-(propane-2-sulfonyl) acetamide]
0.011 | CC(C)S(=O)(=O)C(C(=O)NCC(=O)NC1CC1)c1nc2cc(F)c(-c3ccc(C(=O)Nc4nccs4)cc3)cc2s1 (stereo not shown) [Example 247, 4-[2-({[(cyclopropyl-carbamoyl)methyl]carbamoyl} (propane-2-sulfonyl)methyl)-5-fluoro-1,3-benzothiazol-6-yl]-N-(1,3-thiazol-2-yl) benzamide]
0.015 | O=C(CNC(=O)C(c1nc2ccc(-c3ccc(C(=O)N4CCOCC4)cc3)cc2s1)S(=O)(=O)Cc1ccc(F)cc1)NC1CC1 (stereo not shown) [Example 213, N-[(cyclopropyl-carbamoyl)methyl]-2-[(4-fluorophenyl)methanesulfonyl]-2-{6-[4-(morpholine-4-carbonyl)phenyl]-1,3-benzothiazol-2-yl}acetamide]
0.011 | COC(=O)Nc1ccc(-c2cc3sc(C(C(=O)NCC(=O)NC4CC4)S(C)(=O)=O)nc3cc2F)cc1F (stereo not shown) [Example 118, methyl N-{4-[2-({[(cyclopropyl-carbamoyl)methyl]carbamoyl} (methanesulfonyl)methyl)-5-fluoro-1,3-benzothiazol-6-yl]-2-fluorophenyl} carbamate]
0.011 | CC(C)n1cc(-c2cc3nc(C(C(=O)NCC(=O)NC4CC4)S(=O)(=O)C(C)C)sc3cc2F)ccc1=O (stereo not shown) [Example 268, N-[(cyclopropyl-carbamoyl)methyl]-2-{6-fluoro-5-[6-oxo-1-(propan-2-yl)-1,6-dihydropyridin-3-yl]-1,3-benzothiazol-2-yl}-2-(propane-2-sulfonyl)acetamide]
0.068 | COCCS(=O)(=O)C(C(=O)NCC(=O)NC1(c2ncon2)CC1)c1nc2ccc(-c3ccc(F)nc3)cc2s1 (stereo not shown) [Example 391, 2-[6-(6-fluoropyridin-3-yl)-1,3-benzothiazol-2-yl]-2-(2-methoxyethane-sulfonyl)-N-({[1-(1,2,4-oxadiazol-3-yl)cyclopropyl]carbamoyl}methyl) acetamide]
0.004 | COCCS(=O)(=O)C(C(=O)NCC(=O)NC1CC1)c1nc2ccc(-c3ccc(C(=O)NCC(F)(F)F)cc3)cc2s1 (stereo not shown) [Example 97, 4-[2-({[(cyclopropyl-carbamoyl)methyl]carbamoyl}(2-methoxyethane-sulfonyl)methyl)-1,3-benzothiazol-6-yl]-N-(2,2,2-trifluoroethyl) benzamide]
0.024 | CC(C)S(=O)(=O)C(C(=O)NCC(=O)NC1CC1)c1nc2cc(C(F)(F)F)c(-c3ccc(C(=O)N4CCOCC4)cc3)cc2s1 (stereo not shown) [Example 168, N-[(cyclopropyl-carbamoyl)methyl]-2-{6-[4-(morpholine-4-carbonyl)phenyl]-5-(trifluoromethyl)-1,3-benzothiazol-2-yl}-2-(propane-2-sulfonyl) acetamide]
0.002 | CS(=O)(=O)C(C(=O)NCC(=O)NC1CC1)c1nc2ccc(-c3ccc(-n4cccn4)cc3)cc2s1 (stereo not shown) [Example 373, N-[(cyclopropyl-carbamoyl)methyl]-2-methanesulfonyl-2-{6-[4-(1H-pyrazol-1-yl)phenyl]-1,3-benzothiazol-2-yl}acetamide]
0.116 | O=C(CNC(=O)C(c1nc2c(F)cc(-c3cncnc3)cc2s1)S(=O)(=O)c1ccc(F)cc1)NC1CC1 (stereo not shown) [Example 474, N-[(cyclopropyl-carbamoyl)methyl]-2-[4-fluoro-6-(pyrimidin-5-yl)-1,3-benzothiazol-2-yl]-2-(4-fluorobenzene-sulfonyl)acetamide]
0.01 | CN(C)S(=O)(=O)C(C(=O)NCC(=O)NC1CC1)c1nc2c(F)cc(-c3ccc(-c4nnn[nH]4)cc3)cc2s1 (stereo not shown) [Example 504, N-[(cyclopropyl-carbamoyl)methyl]-2-(dimethyl-sulfamoyl)-2-{4-fluoro-6-[4-(1H-1,2,3,4-tetrazol-5-yl)phenyl]-1,3-benzothiazol-2-yl}acetamide]
0.001 | O=C(CNC(=O)C(c1nc2cc(F)c(-c3ccc(-c4ccn[nH]4)cc3)cc2s1)S(=O)(=O)CCC(F)(F)F)NC1CC1 (stereo not shown) [Example 144, N-[(cyclopropyl-carbamoyl)methyl]-2-{5-fluoro-6-[4-(1H-pyrazol-5-yl)phenyl]-1,3-benzothiazol-2-yl}-2-(3,3,3-trifluoropropane-sulfonyl) acetamide]
0.014 | CS(=O)(=O)C(C(=O)NCC(=O)NC1CC1)c1nc2cc(F)c(-c3ccnc(F)c3)cc2s1 (stereo not shown) [Example 321, N-[(cyclopropyl-carbamoyl)methyl]-2-[5-fluoro-6-(2-fluoropyridin-4-yl)-1,3-benzothiazol-2-yl]-2-methanesulfonyl-acetamide]
0.003 | COC(=O)Nc1ccc(-c2cc3sc(C(C(=O)NCC(=O)NC4CC4)S(=O)(=O)CCN4CCOCC4)nc3cc2F)cc1 (stereo not shown) [Example 422, methyl N-{4-[2-({[(cyclopropyl-carbamoyl)methyl]carbamoyl}[2-(morpholin-4-yl)ethanesulfonyl]methyl)-5-fluoro-1,3-benzothiazol-6-yl]phenyl} carbamate]
0.023 | O=C(CNC(=O)C(c1nc2cc(-c3ccc(F)nc3)ccc2s1)S(=O)(=O)Cc1ccccc1)NC1CC1 (stereo not shown) [Example 14, N-[(cyclopropyl-carbamoyl)methyl]-2-[5-(6-fluoropyridin-3-yl)-1,3-benzothiazol-2-yl]-2-phenylmethane-sulfonylacetamide]
0.003 | COCCS(=O)(=O)C(C(=O)NCC(=O)Nc1ccccc1)c1nc2ccc(-c3ccc(F)nc3)cc2s1 (stereo not shown) [Example 383, 2-[6-(6-fluoropyridin-3-yl)-1,3-benzothiazol-2-yl]-2-(2-methoxyethane-sulfonyl)-N-[(phenyl-carbamoyl)methyl]acetamide]

Same assay, conditions: EL from conditioned media of HT-1080 cells; 30 min preincubation at 37° C.

IC50 [µM] | Compound
0.0013 | CS(=O)(=O)C(C(=O)NCC(=O)NC1CC1)c1nc2cc(F)c(-c3ccc(NC(=O)OCc4ccccn4)cc3)cc2s1 (stereo not shown) [Example 510, Pyridin-2-ylmethyl (4-(2-(2-((2-(cyclopropylamino)-2-oxoethyl)amino)-1-(methylsulfonyl)-2-oxoethyl)-5-fluorobenzo[d]thiazol-6-yl)phenyl)carbamate]
